The experiment relates to Huh7 cells. The experiment can be described thus: growth inhibition of Huh7 cells. It counts as cell-based. As to conditions: single trials per figure (FIGS. 1A-4). The procedure:
FIGS. 1A-4 show results for growth inhibition of Huh7 cells upon contact with compounds (FQI-37Q), (FQI-34Q), (FQI-1Q), (JAK 196-22), and (JAK 196.23). Compounds (FQI-37Q) and (FQI-34Q) show high activities (GI50 about 0.5 μM and lower).

[1] abbreviates: Homo sapiens, Huh-7, Huh7 cells, read-out: GI50 (growth inhibition of Huh7 cells).

Molecules are shown by their SMILES. Read-outs that look alike come from different tables or passages of the source.

The GI50 is the concentration giving 50% growth inhibition. Turning to `CCOc1ccccc1N1CC(=O)Nc2cc3c(cc21)OCO3` [FQI-1Q, 8-(2-ethoxyphenyl)-7,8-dihydro-[1,3]dioxolo[4,5-g]quinoxalin-6(5H)-one], the concentration for 50% growth inhibition (GI50) under setting [1] is 3.6 µM. Regarding `CCOc1cc(N(C)C)ccc1N1CC(=O)Nc2cc3c(cc21)OCO3` [FQI-34Q, 8-(4-(dimethylamino)-2-ethoxyphenyl)-7,8-dihydro-[1,3]dioxolo[4,5-g]quinoxalin-6(5H)-one], where the note is “Homo sapiens, Huh-7, read-out: GI50 (growth inhibition of Huh7 cells), Huh7 cells”, the GI50 is no more than 0.5 µM. Regarding `CCOc1cc(N(C)C)ccc1N1CC(=O)Nc2cc3c(cc21)OCCO3` [FQI-37Q, 9-(4-(dimethylamino)-2-ethoxyphenyl)-2,3,8,9-tetrahydro-[1,4]dioxino[2,3-g]quinoxalin-7(6H)-one], the GI50 (read-out: GI50 (growth inhibition of Huh7 cells), Huh7 cells) amounted to 0.501 µM.

Consider `COc1cc([N+](=O)[O-])ccc1-n1c(=O)cnc2cc3c(cc21)OCO3` [JAK 196-22], for which, under setting [1], the GI50 was greater than 10 µM.

The values above are taken from patent US11242353B2, “Heterocyclic LSF inhibitors and their uses” (TRUSTEES OF BOSTON UNIVERSITY, priority 2020, dated 2022).
